Results reported in patent US12319664B2, “Herbicidally active 3-phenylisoxazoline-5-carboxamides of cyclopentenylcarboxylic acid derivatives” (Bayer Aktiengesellschaft, priority 2018, dated 2025).

Assays:
PHBPU = experiment: Post-emergence herbicidal action against PHBPU; format: in vivo, Pharbitis purpurea; settings: application rate 80 g/ha, rated visually about 3 weeks after treatment
Experimental: (§1) [table] 2. Post-emergence herbicidal action against harmful plants and crop plant compatibility Seeds of monocotyledonous and dicotyledonous weeds and crop plants are placed in sandy loam in plastic or wood-fibre pots, covered with soil and cultivated in a greenhouse under controlled growth conditions. 2 to 3 weeks after sowing, the test plants are treated at the one-leaf stage. The compounds of the invention, formulated in the form of wettable powders (WP) or as emulsion concentrates (EC), are then sprayed onto the green parts of the plants as aqueous suspension or emulsion with addition of 0.5% additive at a water application rate of 600 l/ha (converted). After the test plants have been kept in the greenhouse under optimum growth conditions for about 3 weeks, the activity of the preparations is rated visually in comparison to untreated controls. For example, 100% activity=the plants have died, 0% activity=like control plants.

VERPE = experiment: Post-emergence herbicidal action against VERPE; format: in vivo, Veronica persica; settings: application rate 80 g/ha
Method in brief: (§2)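 Visual rating of activity (0% = as untreated control, 100% = plants dead) about 3 weeks after treatment. Plants were sprayed at the one-leaf stage, 2 to 3 weeks post-sowing in sandy loam, with WP or EC formulations plus 0.5% additive at 600 l/ha water.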

VIOTR = experiment: Post-emergence herbicidal action against VIOTR; format: in vivo, Viola tricolor; settings: application rate 80 g/ha, rated visually about 3 weeks after treatment
Experimental: as §1

AMARE = experiment: Post-emergence herbicidal action against AMARE; format: in vivo, Amaranthus retroflexus; settings: application rate 80 g/ha, rated visually about 3 weeks after treatment
Method in brief: as §2

HORMU = experiment: Post-emergence herbicidal action against HORMU; format: in vivo, Hordeum murinum; settings: application rate 80 g/ha
Method in brief: as §2

ABUTH = experiment: Post-emergence herbicidal action against ABUTH; format: in vivo, Abutilon theophrasti; settings: application rate 80 g/ha, rated visually about 3 weeks after treatment
Method in brief: as §2

AVEFA = experiment: Post-emergence herbicidal action against AVEFA; format: in vivo, Avena fatua; settings: application rate 80 g/ha, rated visually after about 3 weeks
Method in brief: as §2

ECHCG = experiment: Post-emergence herbicidal action against ECHCG; format: in vivo, Echinochloa crus-galli; settings: application rate 80 g/ha, rated visually after about 3 weeks
Method in brief: as §2

STEME = experiment: Post-emergence herbicidal action against STEME; format: in vivo, Stellaria media; settings: application rate 80 g/ha, rated visually about 3 weeks after treatment
Method in brief: as §2

SETVI = experiment: Post-emergence herbicidal action against SETVI; format: in vivo, Setaria viridis; settings: application rate 80 g/ha, rated visually after about 3 weeks
Method in brief: as §2

LOLRI = experiment: Post-emergence herbicidal action against LOLRI; format: in vivo, Lolium rigidum; settings: application rate 80 g/ha, rated visually after about 3 weeks
Method in brief: as §2

ALOMY = experiment: Post-emergence herbicidal action against ALOMY; format: in vivo, Alopecurus myosuroides; settings: application rate 80 g/ha, rated visually after about 3 weeks
Method in brief: as §2

POLCO = experiment: Post-emergence herbicidal action against POLCO; format: in vivo, Polygonum convolvulus; settings: application rate 80 g/ha, rated visually about 3 weeks after treatment
Method in brief: as §2

Structure (SMILES) | Herbicidal action against [%] PHBPU (PHBPU) [%] | Herbicidal action against [%] VERPE (VERPE) [%] | Herbicidal action against [%] VIOTR (VIOTR) [%] | Herbicidal action against [%] AMARE (AMARE) [%] | Herbicidal action against [%] HORMU (HORMU) [%] | Herbicidal action against [%] ABUTH (ABUTH) [%] | Herbicidal action against [%] AVEFA (AVEFA) [%] | Herbicidal action against [%] ECHCG (ECHCG) [%] | Herbicidal action against [%] STEME (STEME) [%] | Herbicidal action against [%] SETVI (SETVI) [%] | Herbicidal action against [%] LOLRI (LOLRI) [%] | Herbicidal action against [%] ALOMY (ALOMY) [%] | Herbicidal action against [%] POLCO (POLCO) [%]
COc1cc(OC)cc(C2=NOC(C(=O)NC3C=CC(C(=O)OCC(F)(F)F)C3)(C(F)(F)F)C2)c1 (mixture of isomers) [Example I-052] | 80 | 80 | 80 | 90 | 100 | 90 | 100 | 80 | 80 | 90 | 100 | 100 | 
C=CC1(C(=O)NC2C=CC(C(=O)OC(C)(C)C)C2)CC(c2cc(F)cc(F)c2)=NO1 (mixture of isomers) [Example I-060] | 80 |  | 80 | 80 | 90 |  | 90 | 90 |  |  |  | 90 | 
CCOC(=O)C1C=CC(NC(=O)C2(C(F)(F)F)CC(c3cccc(C#N)c3)=NO2)C1 (mixture of isomers) [Example I-072] |  | 80 | 80 | 80 | 90 | 80 | 100 | 90 | 80 | 80 | 90 | 90 | 90
COC(=O)C1C=CC(NC(=O)C2(C)CC(c3cccc(C#N)c3)=NO2)C1 (mixture of isomers) [Example I-080] | 90 | 90 | 80 | 90 | 90 |  | 100 | 90 | 90 | 80 | 90 | 90 | 90
N#Cc1cc(F)cc(C2=NOC(C(=O)NC3C=CC(C(=O)OCCCl)C3)(C(F)(F)F)C2)c1 (mixture of isomers) [Example I-089] |  | 90 | 90 | 90 | 100 | 90 | 100 | 90 | 90 | 80 | 100 | 100 | 90
CC(C)(C#N)NC(=O)C1C=CC(NC(=O)C2(C)CC(c3cc(F)cc(F)c3)=NO2)C1 (mixture of isomers) [II-10] | 90 | 80 | 90 | 80 |  |  | 90 | 90 | 90 |  | 90 | 90 | 90
O=C(C1C=CC(NC(=O)C2(C(F)(F)F)CC(c3cc(F)cc(F)c3)=NO2)C1)N1CCCCO1 (mixture of isomers) [II-31] |  | 90 | 90 | 80 | 80 | 90 | 100 | 90 | 90 | 80 | 90 | 90 | 90
CCCS(=O)(=O)NC(=O)C1C=CC(NC(=O)C2(C(F)(F)F)CC(c3cc(F)cc(F)c3)=NO2)C1 (mixture of isomers) [II-33] |  | 80 | 90 | 90 | 90 | 80 | 100 | 80 | 80 | 80 | 90 |  | 90
COC(=O)C(C)(C)NC(=O)C1C=CC(NC(=O)C2(C(F)(F)F)CC(c3cc(F)cc(F)c3)=NO2)C1 (mixture of isomers) [II-36] | 90 | 80 | 90 | 90 | 80 |  | 100 |  |  |  | 90 | 90 | 90
COC(=O)C(NC(=O)C1C=CC(NC(=O)C2(C(F)(F)F)CC(c3cc(F)cc(F)c3)=NO2)C1)C(C)C (mixture of isomers) [II-37] |  | 90 | 90 | 90 | 90 | 80 | 100 |  | 90 | 80 | 100 | 80 | 100
COC(=O)[C@@H]1C=C[C@H](NC(=O)C2(C(F)(F)F)CC(c3cc(F)cc(C#N)c3)=NO2)C1 (single isomer, unassigned) [Example I-097] | 80 | 80 | 80 | 80 | 90 |  | 90 | 90 | 80 | 90 | 100 | 100 | 80
C=CC1(C(=O)NC2C=CC(C(=O)O)C2)CC(c2cc(F)cc(F)c2)=NO1 (centres unmarked) [Example I-014] |  | 90 | 90 | 90 | 80 |  | 90 | 90 | 90 | 80 | 90 | 90 | 80
COCCOC(=O)C1C=CC(NC(=O)C2(C(F)(F)F)CC(c3cc(F)cc(C#N)c3)=NO2)C1 (centres unmarked) [Example I-099] |  | 80 | 80 | 80 | 80 |  | 90 | 80 | 80 | 90 | 100 | 90 | 80
O=C(O)C1=C[C@@H](NC(=O)[C@@]2(C(F)(F)F)CC(c3cc(F)cc(F)c3)=NO2)CC1 [Example V-04] |  | 80 | 80 | 80 | 90 | 80 |  | 80 | 90 | 80 | 90 | 100 | 
COC(=O)C1=CC[C@H](NC(=O)C2(C)CC(c3cc(F)cc(F)c3)=NO2)C1 (some centres unmarked) [III-10] | 90 | 90 | 90 | 90 | 100 | 90 | 100 | 90 | 90 | 90 | 100 | 100 | 
